Measured values: US20020052295A1, “Diacyl derivatives of propylene diamine having herbicidal activity” (priority 1999, published 2002)

Key:
ABUTH = experiment: Post-emergence herbicidal activity on ABUTH (velvetleaf); format: in vivo, Abutilon theophrasti; conditions: post-emergence spray; lowest tested rate with 80% or greater inhibition; about 14 days after treatment
Excerpt: (§1) All such uses, and the biological activity enabling such uses, are embraced by the term “herbicidal” herein. Tables 15 and 16 summarize results of tests conducted as described below to determine the pre-emergence herbicidal activity, in the form of a GR80 value, of illustrative compounds of this invention. […] Where herbicidal activity was evident but 80% inhibition was not achieved at the highest rate tested (typically 1000 g/ha), an asterisk (*) is shown in the following tables. Herbicidal activity evident in the form of symptoms of phytotoxicity, in the absence of at least 80% inhibition at any rate, is indicated in the tables by “phyto”. A blank cell in the following tables indicates no herbicidal or phytotoxic response at any rate tested.
(§2) In another set of tests, the post-emergence activity of compounds of this invention was evaluated on the cool season species listed above. The following procedure was used.
(§3) A pre-prepared topsoil mixture (described above) was placed in a pot and compacted to a depth of 1.0 to 1.25 cm from the top of the pot. Seeds of each of several monocotyledonous and dicotyledonous annual plant species were placed on top of the soil The seeds were covered with a mixture of 50% topsoil and 50% Rediearth™ in sufficient quantity to level-fill the pots. The pots were then placed on a greenhouse bench and subirrigated as needed until plants growing from the seeds had emerged and reached a suitable growth stage for post-emergence treatment, typically 9 to 14 days after planting.
(§4) A known amount of each test compound dissolved or suspended in an appropriate organic solvent was diluted with a 50:50 mix of acetone and water and applied to the plants by spraying with a standard spray nozzle in a spray volume of 3,100 l/ha at a spray pressure of […] (30 psig). Control plants were not sprayed.
(§5) After treatment the plants were placed in a greenhouse with a 30/21° C. day/night temperature regime and were subsequently watered as needed for growth. Approximately 14 days after treatment, the plants were observed and herbicidal efficacy recorded as percent inhibition by comparison with control plants.

SOLNI [1] = experiment: Post-emergence herbicidal activity on SOLNI (black nightshade); format: in vivo, Solanum nigrum; conditions: post-emergence spray; lowest tested rate with 80% or greater inhibition; about 14 days after treatment
Excerpt: as §1, §2, §3, §4, §5

AMARE = experiment: Post-emergence herbicidal activity on AMARE (redroot pigweed); format: in vivo, Amaranthus retroflexus; conditions: post-emergence spray; lowest tested rate with 80% or greater inhibition; about 14 days after treatment
Excerpt: as §1, §2, §3, §4, §5

DATST = experiment: Post-emergence herbicidal activity on DATST (jimsonweed); format: in vivo, Datura stramonium; conditions: post-emergence spray; lowest tested rate with 80% or greater inhibition; about 14 days after treatment
Excerpt: as §1, §2, §3, §4, §5

CHEAL = experiment: Post-emergence herbicidal activity on CHEAL (common lambsquarters); format: in vivo, Chenopodium album; conditions: post-emergence spray; lowest tested rate with 80% or greater inhibition; about 14 days after treatment
Excerpt: as §1, §2, §3, §4, §5

POROL = experiment: Post-emergence herbicidal activity on POROL (common purslane; table head prints PORAL); format: in vivo, Portulaca oleracea; conditions: post-emergence spray; lowest tested rate with 80% or greater inhibition; about 14 days after treatment
Excerpt: as §1, §2, §3, §4, §5

CIRAR [2] = experiment: Post-emergence herbicidal activity on CIRAR (canada thistle, seedling); format: in vivo, Cirsium arvense; conditions: post-emergence spray; lowest tested rate with 80% or greater inhibition; about 14 days after treatment
Excerpt: as §1, §2, §3, §4, §5

ECHCG [3] = experiment: Post-emergence herbicidal activity on ECHCG (barnyardgrass); format: in vivo, Echinochloa crus-galli; conditions: post-emergence spray; lowest tested rate with 80% or greater inhibition; about 14 days after treatment
Excerpt: as §1, §2, §3, §4, §5

PANMI [4] = experiment: Post-emergence herbicidal activity on PANMI (wild proso millet); format: in vivo, Panicum miliaceum; conditions: post-emergence spray; lowest tested rate with 80% or greater inhibition; about 14 days after treatment
SORHA = experiment: Post-emergence herbicidal activity on SORHA (johnsongrass, seedling); format: in vivo, Sorghum halepense; conditions: post-emergence spray; lowest tested rate with 80% or greater inhibition; about 14 days after treatment
Excerpt: as §1, §2, §3, §4, §5

PANDI = experiment: Post-emergence herbicidal activity on PANDI (fall panicum); format: in vivo, Panicum dichotomiflorum; conditions: post-emergence spray; lowest tested rate with 80% or greater inhibition; about 14 days after treatment
Excerpt: as §1, §2, §3, §4, §5

SORVU = experiment: Post-emergence herbicidal activity on SORVU (shattercane); format: in vivo, Sorghum vulgare; conditions: post-emergence spray; lowest tested rate with 80% or greater inhibition; about 14 days after treatment
Excerpt: as §1, §2, §3, §4, §5

BRAPP [5] = experiment: Post-emergence herbicidal activity on BRAPP (broadleaf signalgrass); format: in vivo, Brachiaria platyphylla; conditions: post-emergence spray; lowest tested rate with 80% or greater inhibition; about 14 days after treatment
Excerpt: as §1, §2, §3, §4, §5

DIGSA [6] = experiment: Post-emergence herbicidal activity on DIGSA (large crabgrass); format: in vivo, Digitaria sanguinalis; conditions: post-emergence spray; lowest tested rate with 80% or greater inhibition; about 14 days after treatment
CONAR = experiment: Post-emergence herbicidal activity on CONAR (field bindweed); format: in vivo, Convolvulus arvensis; conditions: post-emergence spray; lowest tested rate with 80% or greater inhibition; about 14 days after treatment
Excerpt: as §1, §2, §3, §4, §5

SOLNI [7] = experiment: Pre-emergence herbicidal activity on SOLNI (black nightshade); format: in vivo, Solanum nigrum; conditions: lowest tested rate giving 80% or greater inhibition, approx. 14 days after planting and treating, greenhouse
Method in brief: (§6)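 Values are GR80 (rate giving 80% inhibition), with rates up to typically 1000 g/ha. Inhibition is visually recorded against untreated pots roughly two weeks after sowing and surface treatment in a 30/21 °C day/night greenhouse.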

CIRAR [8] = experiment: Pre-emergence herbicidal activity on CIRAR (canada thistle, seedling); format: in vivo, Cirsium arvense; conditions: lowest tested rate giving 80% or greater inhibition, approx. 14 days after planting and treating, greenhouse
Method in brief: as §6

ECHCG [9] = experiment: Pre-emergence herbicidal activity on ECHCG (barnyardgrass); format: in vivo, Echinochloa crus-galli; conditions: lowest tested rate giving 80% or greater inhibition, approx. 14 days after planting and treating, greenhouse
Method in brief: as §6

PANMI [10] = experiment: Pre-emergence herbicidal activity on PANMI (wild proso millet); format: in vivo, Panicum miliaceum; conditions: lowest tested rate giving 80% or greater inhibition, approx. 14 days after planting and treating, greenhouse
Method in brief: as §6

SETFA [11] = experiment: Pre-emergence herbicidal activity on SETFA (giant foxtail); format: in vivo, Setaria faberi; conditions: lowest tested rate giving 80% or greater inhibition, approx. 14 days after planting and treating, greenhouse
Method in brief: as §6

BRAPP [12] = experiment: Pre-emergence herbicidal activity on BRAPP (broadleaf signalgrass); format: in vivo, Brachiaria platyphylla; conditions: lowest tested rate giving 80% or greater inhibition, approx. 14 days after planting and treating, greenhouse
Method in brief: as §6

DIGSA [13] = experiment: Pre-emergence herbicidal activity on DIGSA (large crabgrass); format: in vivo, Digitaria sanguinalis; conditions: lowest tested rate giving 80% or greater inhibition, approx. 14 days after planting and treating, greenhouse
Method in brief: as §6

SETFA [14] = experiment: Post-emergence herbicidal activity on SETFA (giant foxtail); format: in vivo, Setaria faberi; conditions: post-emergence spray; lowest tested rate with 80% or greater inhibition; about 14 days after treatment
Excerpt: as §1, §2, §3, §4, §5

SMILES | Post-emergence activity (GR80) ABUTH (ABUTH) | Post-emergence activity (GR80) SOLNI (SOLNI [1]) | Post-emergence activity (GR80) AMARE (AMARE) | Post-emergence activity (GR80) DATST (DATST) | Post-emergence activity (GR80) CHEAL (CHEAL) | Post-emergence activity (GR80) PORAL (POROL) | Post-emergence activity (GR80) CIRAR (CIRAR [2]) | Post-emergence activity (GR80) ECHCG (ECHCG [3]) | Post-emergence activity (GR80) PANMI (PANMI [4]) | Post-emergence activity (GR80) SORHA (SORHA) | Post-emergence activity (GR80) PANDI (PANDI) | Post-emergence activity (GR80) SORVU (SORVU) | Post-emergence activity (GR80) BRAPP (BRAPP [5]) | Post-emergence activity (GR80) DIGSA (DIGSA [6]) | Post-emergence activity (GR80) CONAR (CONAR) | also measured
O=C(NCC(CO)NC(=O)c1cccc(C(F)(F)F)c1)c1cccc(C(F)(F)F)c1 (stereo not drawn) [Example 11, N,N′-(3-hydroxy-1,2-propanediylbis)-3-(trifluoromethyl)benzamide] | [empty] | [empty] | phyto | phyto | [empty] | [empty] | [empty] | [empty] | [empty] | [empty] | [empty] | [empty] | [empty] | [empty] |  | 
O=C(NCC(CCl)NC(=O)c1cccc(C(F)(F)F)c1)c1cccc(C(F)(F)F)c1 (stereo not drawn) [Example 12, N,N′-(3-chloro-1,2-propanediylbis)-3-(trifluoromethyl)benzamide] | [empty] | [empty] | [empty] | [empty] | [empty] | 1000 g/ha | 1000 g/ha | [empty] | [empty] | [empty] | [empty] | [empty] | [empty] | [empty] | [empty] | 
C=C(C)CSc1ccccc1C(=O)NC(C)CNC(=O)c1cccc(C(F)(F)F)c1 (stereo not drawn) [Example 124] | phyto | phyto | phyto | phyto | [empty] | phyto |  | [empty] | [empty] | [empty] | [empty] | [empty] | [empty] | [empty] | phyto | Pre-emergence activity (GR80) on SOLNI (SOLNI [7]): phyto; Pre-emergence activity (GR80) on CIRAR (CIRAR [8]): 1000 g/ha; Pre-emergence activity (GR80) on ECHCG (ECHCG [9]): phyto; Pre-emergence activity (GR80) on PANMI (PANMI [10]): phyto; Pre-emergence activity (GR80) on SETFA (SETFA [11]): phyto; Pre-emergence activity (GR80) on BRAPP (BRAPP [12]): phyto; Pre-emergence activity (GR80) on DIGSA (DIGSA [13]): 1000 g/ha; Post-emergence activity (GR80) SETFA (SETFA [14]): [empty]
